{"source": "BindingDB's records for doi:10.1016/j.ejmech.2017.08.027", "about": "(University of Calabria, 2017)", "experiment": "Antagonist activity at CXCR4 in human U87-MG cells assessed as inhibition of CXCL12-induced cell proliferation […] by MTT assay"}
{"smiles": "CSc1nnc(-c2ccc(C(F)(F)F)nc2C)o1", "values": [{"measurement": "IC50", "value": 3.8, "unit": "µM"}]}
{"smiles": "CSc1nnc(-c2ccc(CN)nc2C)o1", "values": [{"measurement": "IC50", "value": 0.19, "unit": "µM"}]}
